From patent publication US4521418A, “Guanidinothiazolyl derivatives” (Smith Kline & French Laboratories Limited, priority 1979, dated 1985)

Tested on: histamine H2 -receptors
Test: inhibition of histamine-stimulated secretion of gastric acid from Heidenhain pouch dogs
Format: in vivo
Conditions: Heidenhain pouch dog, 0.25 micromol kg^-1 i.v.
Method: Heidenhain pouch dogs are prepared by the following procedure. The abdomen of a male beagle (14-16 kg) is opened and the stomach is exteriorized. Blood vessels are ligated and cut at two places on the greater curvature to enable a piece of the fundus of the stomach to be cut away from the main stomach to form the pouch. The incision lines are sewn together to enable normal digestion. A stainless steel cannula is inserted into the pouch and the end not in the pouch is exteriorized through a stab wound in the abdominal wall to allow drainage of gastric juice under gravity. Finally, the abdomen is closed by a continuous suture. The dogs are ready for experimental use approximately three weeks after operation. The compounds of the invention are tested in Heidenhain pouch dogs by the following procedure. The dogs are starved for approximately 20 hours prior to the experiment and are then placed in Pavlov stands. A polythene cannula is placed in a leg vein and saline is infused for about one hour. A check is made that there is no basal acid secretion. Histamine (20 micromoles/hour) or pentagastrin (8 micrograms/kg/hour) is continuously infused in place of the saline. A plateau of acid secretion is reached after 11/2 to 2 hours and the test compound is administered intravenously or orally (contained within a hard gelatin capsule). Gastric juice is collected by drainage under gravity into perspex tubes attached to the gastric cannula. Normally samples are collected over fifteen minute periods. The volumes of the samples are measured and aliquots are titrated to pH 7.4 with 0.1N sodium hydroxide. Acid secretion is expressed as the product of the volume and acid concentration.

Compound | duration of action | mean peak inhibition of histamine-stimulated gastric acid secretion
N=C(N)Nc1nc(CSCCNc2ncc(Cc3cccnc3)c(=O)[nH]2)cs1 [Example 1, 2-[2-(2-guanidino-4-thiazolylmethylthio)ethylamino]-5-(3-pyridylmethyl)-4-pyrimidone] | extended duration of action | over 50%
Cc1ccc(Cc2cnc(NCCSCc3csc(NC(=N)N)n3)[nH]c2=O)cn1 [Example 3, 2-[2-(2-guanidino-4-thiazolylmethylthio)ethylamino]-5-(6-methyl-3-pyridylmethyl)-4-pyrimidone] | extended duration of action | over 50%
